Test system: str. radiatum CA1 region of rat hippocampal slices (LTP)
Test: LTP test (40 Hz theta burst tetanization) in submerged hippocampal slices, field EPSP recording in multi-chamber device
Format: cell-based
Settings: 40 Hz×4×10 theta burst, p<0.01, 4 rats, 12 slices
Method: A twelve-chamber assembly of chambers according to the embodiment of the invention described in Example 1 is prepared for measurement of twelve slices simultaneously. Each chamber is prepared such that the top ends of the electrodes are placed 50 μm below the bottom net. Bipolar stimulation is utilized and the distance between electrodes is set to 100 μm. Such an assembly with fixed electrodes may be utilized for numerous experiments without readjustment of the electrodes. Individual chambers in the assembly may be replaced as necessary with new chambers. Electrophysiology experiments are performed on a 6-month old male rat. 400 μm hippocampal slices from the rat are prepared using a VIBROTOMETM (vibroslicer WPI; World Precision Instruments) to assure precise thickness. Slices were incubated for 2 hours at room temperature in a perfusion solution containing, in mM, 119 NaCl, 2.5 KCl, 2.5 CaCl2, 1.3 MgSO4, 1.25 NaH2PO4, 26.0 NaHCO3, 10 glucose and equilibrated with 95% O2 and 5% CO2 (pH 7.3-7.4) at room temperature. […] Simultaneous recording from the twelve slices is measured using electrophysiological software, […] […] 30 seconds after the single tetanus, baseline is continued to be collected as before and LTP was measured 60 minutes after tetanization. […] LOGEC 50 values are determined using Prizm4 software (Graphpad).

COc1ccc(C2CNC(=O)C2)cc1OC1CCCC1 (centres unmarked) [rolipram]
% of facilitation of the LTP 60 minutes after tetanic stimulation (rolipram 1 μM in perfusion fluid): significant | % of facilitation of the LTP 60 minutes after tetanic stimulation (rolipram 10 μM in perfusion fluid): significant

Reference: patent publication US20050131463A1, “Perfusion chamber for recording evoked and spontaneous electrical activity from submerged acute brain slices” (priority 2003, published 2005)
